Test results from patent US9932320B2 (BRISTOL-MYERS SQUIBB COMPANY, priority 2014, dated 2018).
Read-outs that look alike come from different tables or passages of the source.

Molecular target: T1, AAK1 (GST-Xa-hAAK1) (Homo sapiens, UniProt Q2M2I8)
T1 construct: made in house
Assay: AAK1 Kinase Assay (Caliper LabChip, fluoresceinated peptide substrate)
Type: biochemical
Settings: AAK1 functional potency
Procedure: The assays were performed in U-bottom 384-well plates. The final assay volume was 30 μl prepared from 15 μl additions of enzyme and substrates (fluoresceinated peptide (5-FAM)-Aha-KEEQSQITSQVTGQIGWR-NH2 and ATP) and test compounds in assay buffer (10 mM Tris-HCL pH 7.4, 10 mM MgCl2, 0.01% Tween-20 and 1.0 mM DTT). The reactions were initiated by the combination of bacterially expressed, GST-Xa-hAAK1 with substrates and test compounds. The reactions were incubated at room temperature for 3 hours and terminated by adding 60 μl of 35 mM EDTA buffer to each sample. The reactions were analyzed on the Caliper LabChip 3000 (Caliper, Hopkinton, Mass.) by electrophoretic separation of the fluorescent substrate and phosphorylated product. Inhibition data were calculated by comparison to EDTA quenched control reactions for 100% inhibition and vehicle-only reactions for 0% inhibition. The final concentration of reagents in the assays are ATP, 22 μM; (5-FAM)-Aha-KEEQSQITSQVTGQIGWR-NH2, 1.5 μM; GST-Xa-hAAK1, 3.5 nM; and DMSO, 1.6%. Dose response curves were generated to determine the concentration required inhibiting 50% of kinase activity (IC50). Compounds were dissolved at 10 mM in dimethylsulfoxide (DMSO) and evaluated at eleven concentrations. IC50 values were derived by non-linear regression analysis.

[1] = class symbols, read-out: IC50 (nM), functional potency as IC50 ranges

T1 sequence (Q2M2I8 whole entry): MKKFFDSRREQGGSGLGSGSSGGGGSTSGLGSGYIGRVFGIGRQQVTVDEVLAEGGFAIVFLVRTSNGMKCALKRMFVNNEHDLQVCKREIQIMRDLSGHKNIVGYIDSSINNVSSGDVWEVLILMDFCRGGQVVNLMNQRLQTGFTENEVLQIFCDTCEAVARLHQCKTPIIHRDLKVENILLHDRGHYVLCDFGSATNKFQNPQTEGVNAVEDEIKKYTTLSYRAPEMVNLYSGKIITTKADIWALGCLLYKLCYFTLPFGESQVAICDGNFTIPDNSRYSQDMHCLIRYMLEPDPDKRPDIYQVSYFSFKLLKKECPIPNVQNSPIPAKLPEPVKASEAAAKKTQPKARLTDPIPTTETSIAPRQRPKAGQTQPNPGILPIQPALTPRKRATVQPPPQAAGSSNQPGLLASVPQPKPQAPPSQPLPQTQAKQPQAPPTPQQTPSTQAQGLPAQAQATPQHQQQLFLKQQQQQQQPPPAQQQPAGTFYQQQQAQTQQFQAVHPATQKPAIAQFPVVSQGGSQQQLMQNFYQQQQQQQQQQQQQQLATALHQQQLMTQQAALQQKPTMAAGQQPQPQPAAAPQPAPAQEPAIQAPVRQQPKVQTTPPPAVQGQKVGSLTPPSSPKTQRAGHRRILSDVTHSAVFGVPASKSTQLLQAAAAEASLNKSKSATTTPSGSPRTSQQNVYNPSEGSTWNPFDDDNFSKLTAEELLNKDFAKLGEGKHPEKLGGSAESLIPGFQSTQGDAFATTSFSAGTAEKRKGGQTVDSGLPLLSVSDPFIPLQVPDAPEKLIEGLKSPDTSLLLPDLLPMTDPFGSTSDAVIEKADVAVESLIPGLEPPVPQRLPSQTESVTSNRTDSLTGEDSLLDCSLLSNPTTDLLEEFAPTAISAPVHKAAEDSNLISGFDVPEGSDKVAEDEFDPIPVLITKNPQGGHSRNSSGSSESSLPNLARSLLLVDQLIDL

| Structure (SMILES) | IC50 [1] [nM] | IC50 (numeric values, read-out: IC50 (nM), functional potency) [nM] |
| --- | --- | --- |
| CC(C)CC(N)c1ccc2cc(-c3ccnc4[nH]ccc34)ccc2n1 (centres unmarked) [Example 25, 1-(6-(1H-pyrrolo[2,3-b]pyridin-4-yl)quinolin-2-yl)-3-methylbutan-1-amine] | 1 to 10 | – |
| COc1cc2nc(CCC(C)C)cc(O)c2cc1-c1cnco1 [Example 9, 2-Isopentyl-7-methoxy-6-(oxazol-5-yl)quinolin-4-ol] | 11 to 100 | – |
| CC(C)CC(N)c1cc(C#N)c2cc(-c3ccncc3)cc(F)c2n1 (centres unmarked) [Example 44, 2-(1-amino-3-methylbutyl)-8-fluoro-6-(pyridin-4-yl)quinoline-4-carbonitrile] | 11 to 100 | – |
| COc1cc2nc(CCC(C)C)cc(Br)c2cc1-c1cnco1 [Example 10, 5-(4-Bromo-2-isopentyl-7-methoxyquinolin-6-yl)oxazole] | 11 to 100 | – |
| COc1cc(CCC(C)C)nc2ccc(-c3ccncc3)cc12 [Example 2, 2-Isopentyl-4-methoxy-6-(pyridin-4-yl)quinoline] | 101 to 2500 | – |
| CC(C)CC(N)c1ccc2cc(-c3ccnc(N(C)C)n3)ccc2n1 (centres unmarked) [Example 28, 4-(2-(1-amino-3-methylbutyl)quinolin-6-yl)-N,N-dimethylpyrimidin-2-amine] | 11 to 100 | – |
| CC(C)Cc1cnc2ccc(-c3ccncc3)cc2c1O [Example 15, 3-Isobutyl-6-(pyridin-4-yl)quinolin-4-ol] | 101 to 2500 | – |
| NC(=O)c1cc(C(N)C2CCCCC2)nc2ccc(-c3ccncc3)cc12 (single isomer, unassigned) [Example 39, 2-(amino(cyclohexyl)methyl)-6-(pyridin-4-yl)quinoline-4-carboxamide] | – | 54 |
| CC(C)CC(OCC(F)(F)F)c1ccc2cc(-c3ccncc3)ccc2n1 (centres unmarked) [Example 32, 2-(3-methyl-1-(2,2,2-trifluoroethoxy)butyl)-6-(pyridin-4-yl)quinoline] | 101 to 2500 | – |
| CCc1cc(C(N)CC(C)C)nc2ccc(-c3ccncc3)cc12 (racemic) [Example 43, 1-(4-ethyl-6-(pyridin-4-yl)quinolin-2-yl)-3-methylbutan-1-amine] | 11 to 100 | – |
| Cc1nc2ccc(-c3ccncc3)cc2c(O)c1CC(C)C [Example 14, 3-Isobutyl-2-methyl-6-(pyridin-4-yl)quinolin-4-ol] | 101 to 2500 | – |
| CC(C)CC(N)c1ccc2cc(-c3ccnc4ccccc34)ccc2n1 (centres unmarked) [Example 26, 1-([4,6′-biquinolin]-2′-yl)-3-methylbutan-1-amine] | 11 to 100 | – |
| CC(=O)Nc1cc(-c2ccc3nc(C(N)C4CCCCC4)ccc3c2)ccn1 (centres unmarked) [Example 36] | 1 to 10 | – |
| COc1cc2nc(C(N)CC(C)C)cc(C#N)c2cc1-c1cnco1 (single isomer, unassigned; (-)) [Example 12, (−)-2-(1-Amino-3-methylbutyl)-7-methoxy-6-(oxazol-5-yl)quinoline-4-carbonitrile] | 11 to 100 | – |
| COc1cnccc1-c1ccc2nc(C(N)CC(C)C)ccc2c1 (single isomer, unassigned; (-)) [Example 23, (−)-1-(6-(3-methoxypyridin-4-yl)quinolin-2-yl)-3-methylbutan-1-amine] | 101 to 2500 | – |
| CC(C)CCc1cc(=S)c2cc(-c3ccncc3)ccc2[nH]1 [Example 31, 2-isopentyl-6-(pyridin-4-yl)quinoline-4(1H)-thione] | 11 to 100 | – |
| COc1cc2nc(CCC(C)C)cc(C#N)c2cc1-c1cnco1 [Example 11, 2-Isopentyl-7-methoxy-6-(oxazol-5-yl)quinoline-4-carbonitrile] | 11 to 100 | – |
| CC(C)CCc1nc2ccc(-c3ccncc3)cc2cc1C(N)=O [Example 17, 2-Isopentyl-6-(pyridin-4-yl)quinoline-3-carboxamide] | 101 to 2500 | – |
| CC(C)CC(N)c1ccc2cc(-c3ccncc3)ccc2n1 (single isomer, unassigned; (-)) [Example 20, (−)-3-methyl-1-(6-(pyridin-4-yl)quinolin-2-yl)butan-1-amine] | 11 to 100 | – |
| CC(C)CC(N)c1ccc2cc(-c3ccnc(N)c3)ccc2n1 (centres unmarked) [Example 29, 4-(2-(1-amino-3-methylbutyl)quinolin-6-yl)pyridin-2-amine] | 1 to 10 | – |
